Measurements as given in paper PMC9039011, “Novel β-Cyclodextrin-Based Heptavalent Glycyrrhetinic Acid Conjugates: Synthesis, Characterization, and Anti-Influenza Activity” (Frontiers in Chemistry, 2022).

Columns and labels:
HA = molecular target: HA; parameters: method as in Sauter et al., 1989; conditions: monovalent interaction; ref Sauter et al., 1989; read-out: dissociation constant (KD); cited from earlier work
[1] = Cytotoxicity assay (CellTiter-Glo cell viability); conditions: dog
MDCK cells = assay: Cytotoxicity assay (CellTiter-Glo cell viability); conditions: dose-dependent, 10 and 25 μM

Which Kd (HA) does the source give for CC(=O)N[C@H]1[C@H]([C@H](O)[C@H](O)CO)OC(O)(C(=O)O)C[C@@H]1O (stereo partly shown) [sialic acid] here?
Its Kd is about 2000 µM.

Which results are given for CC1(C)[C@@H](O)CC[C@]2(C)[C@H]3C(=O)C=C4[C@@H]5C[C@@](C)(C(=O)O)CC[C@]5(C)CC[C@@]4(C)[C@]3(C)CC[C@@H]12 [Compound 2, glycyrrhetinic acid]?
CC50 at 48 h ([1]; MDCK cells): 85 ± 6.8 µM; viability at 48 h, 25 µM ([1]; MDCK cells (uninfected)): 82.8%

For CC(=O)O[C@H]1C(=O)[C@@]2(C)[C@H]([C@H](OC(=O)c3ccccc3)[C@]3(O)C[C@H](OC(=O)[C@H](O)[C@@H](NC(=O)c4ccccc4)c4ccccc4)C(C)=C1C3(C)C)[C@]1(OC(C)=O)CO[C@@H]1C[C@@H]2O [PTX, paclitaxel], which “viability of MDCK cells (words, positive control)” value (MDCK cells) is on record?
The value was “decrease in the viability”.
